The source of these data is patent publication US7173004B2, “Macrocyclic isoquinoline peptide inhibitors of hepatitis C virus” (Bristol-Myers Squibb Company, priority 2003, dated 2007).

The target of assay [1] is T1, HCV NS3/4A protease complex, J4L6S strain (1b genotype) (Hepatitis C virus genotype 1b, UniProt O92972, C1454S/C1711G).
T1 construct: DNA encoding the recombinant HCV NS3/4A protease complex (amino acids 1027 to 1711) for these strains; His tag (inferred from Ni-NTA purification and pET21b vector); made in house; host or cells: Escherichia coli BL21 (DE3)
Kind of assay: Recombinant HCV NS3/4A protease complex FRET peptide assay, J4L6S strain. Format: biochemical. An excerpt: Recombinant HCV NS3/4A Protease Complex FRET Peptide Assay
The purpose of this in vitro assay was to measure the inhibition of HCV NS3 protease complexes, derived from the BMS strain, H77C strain or J416S strain, as described below, by compounds of the present invention. This assay provides an indication of how effective compounds of the present invention would be in inhibiting HCV proteolytic activity.
Serum from an HCV-infected patient was obtained from Dr. T. Wright, San Francisco Hospital. An engineered full-length cDNA (compliment deoxyribonucleic acid) template of the HCV genome (BMS strain) was constructed from DNA fragments obtained by reverse transcription-PCR (RT-PCR) of serum RNA (ribonucleic acid) and using primers selected on the basis of homology between other genotype 1a strains. From the determination of the entire genome sequence, a genotype 1a was assigned to the HCV isolate according to the classification of Simmonds et al. (See P Simmonds, K A Rose, S Graham, S W Chan, F McOmish, B C Dow, E A Follett, P L Yap and H Marsden, J. Clin. Microbiol., 31(6), 1493–1503 (1993)). […]

The next assay concerns HCV replicon. Kind of assay: Two-drug combination matrix studies in HCV replicon system, Universal Response Surface Approach (URSA). Format: cell-based. Conditions: for EC50: Hepatitis C virus. On the procedure: In addition to the combination index approach, above, the Universal Response Surface Approach (URSA) was also used to assess the antiviral effects of combinations of NS5A or NS5B inhibitors with the NS3 protease inhibitor. The experiments were conducted in a matrixed format with 8 concentrations of NS3 protease inhibitor crossed against 10 concentrations of NS5A or NS5B inhibitor on each of three plates. 200× stock solutions of each inhibitor concentration were prepared by 3-fold dilution in DMSO. Effects on replication were assessed in the HCV replicon system as described above. The data was analyzed using the URSA as described in Greco, Park and Rustum (Greco, Park, Sook, and Rustum (1990) Application of a New Approach for the Quantitation of Drug Synergism to the Combination of cis-Diamminedichloroplatinum and 1-β-D-Arabinofuranosylcytosine, Cancer Research, 50, 5318–5327). The interaction of the two drugs was assessed by using non-linear regression with a bisection algorithm. Seven parameters were estimated. These include the minimal response or response in the absence of drug, the maximal response or response in the presence of infinite drug, EC50's for the two drugs, slope parameters for the two drugs, and the drug interaction parameter α which provides the assessment of synergism, antagonism or additivity. Additivity is implied when α is equal to zero, synergy if the interaction parameter is larger than zero, and antagonism when the interaction parameter is less than zero. The confidence interval for the interaction parameter is also presented. This interval is used to test for departure from additivity by comparing the bounds to zero—a lower bound of the interval greater than zero indicates synergy, an upper bound of less than zero indicates antagonism, and a value of zero contained in the interval indicates additivity.

Where [2] appears, read: compound 28 combined with NS5A inhibitor, matrix study (Table 10).
Where [3] appears, read: compound 28 combined with NS5B inhibitor, Expt 1.
Where [4] appears, read: compound 28 combined with NS5B inhibitor, Expt 2.

T1 sequence (O92972 1027-1711 C1454S/C1711G, one chain of several): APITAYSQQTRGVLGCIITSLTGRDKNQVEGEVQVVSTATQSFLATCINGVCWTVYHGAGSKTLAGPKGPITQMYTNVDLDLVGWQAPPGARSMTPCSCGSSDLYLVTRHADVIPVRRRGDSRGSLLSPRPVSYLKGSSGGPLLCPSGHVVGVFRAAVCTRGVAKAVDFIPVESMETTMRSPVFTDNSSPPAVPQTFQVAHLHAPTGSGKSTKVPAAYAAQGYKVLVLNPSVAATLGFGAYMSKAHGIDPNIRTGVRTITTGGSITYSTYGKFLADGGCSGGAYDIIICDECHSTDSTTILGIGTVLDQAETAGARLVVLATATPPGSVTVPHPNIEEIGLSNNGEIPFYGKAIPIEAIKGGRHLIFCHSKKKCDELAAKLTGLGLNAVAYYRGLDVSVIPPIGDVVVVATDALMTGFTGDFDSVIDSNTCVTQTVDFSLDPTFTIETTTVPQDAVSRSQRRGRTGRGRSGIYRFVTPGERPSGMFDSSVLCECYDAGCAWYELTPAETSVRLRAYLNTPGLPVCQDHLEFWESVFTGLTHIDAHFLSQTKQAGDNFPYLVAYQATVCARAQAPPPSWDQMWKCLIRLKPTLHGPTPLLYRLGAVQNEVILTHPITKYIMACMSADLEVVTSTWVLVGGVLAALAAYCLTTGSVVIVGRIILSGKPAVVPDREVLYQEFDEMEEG

Turning to `CC(C)(C)OC(=O)N[C@H]1CCCCC/C=C\[C@@H]2C[C@@]2(C(=O)NS(C)(=O)=O)NC(=O)[C@@H]2C[C@@H](Oc3nccc4ccccc34)CN2C1=O` [Compound 2, [18-(Isoquinolin-1-yloxy)-4-methanesulfonylaminocarbonyl-2,15-dioxo-3,16-diaza-tricyclo[14.3.0.0^4,6]nonadec-7-en-14-yl]-carbamic acid tert-butyl ester], in assay [1], the IC50 amounted to 0.0019 µM.

With `COc1ccc2c(OC3CC4C(=O)NC5(C(=O)NS(=O)(=O)C6CC6)CC5C=CCOCCCC(NC(=O)OC(C)(C)C)C(=O)N4C3)nccc2c1` (stereo not drawn) [Compound 28, [4-Cyclopropanesulfonylaminocarbonyl-18-(6-methoxy-isoquinolin-1-yloxy)-2,15-dioxo-10-oxa-3,16-diaza-tricyclo[14.3.0.0^4,6]nonadec-7-en-14-yl]-carbamic acid tert-butyl ester], the EC50 in the assay with HCV replicon (matrix study with NS5A inhibitor, URSA estimate (Table 10)) is 0.009 µM; in the assay on HCV replicon (matrix study with NS5B inhibitor, Expt 1 (Table 11)), 0.015 µM; with HCV replicon (matrix study with NS5B inhibitor, Expt 2 (Table 11)), 0.02 µM. The Interaction parameter alpha in the assay on HCV replicon (setting [2]) was found to be 0.63; in the assay on HCV replicon (setting [3]), 0.47; in the assay on HCV replicon (setting [4]) it was 0.31. In addition, the “Overall Result” value in the assay with HCV replicon (setting [2]) is given as “Additivity”; in the assay with HCV replicon (compound 28 combined with NS5A inhibitor, matrix study (Table 10), listed as compound 28), “additivity”; in the assay with HCV replicon (setting [3]), “Additivity”; in the assay with HCV replicon (setting [4]) it was “Additivity”. The “combination effect with the HCV NS5B inhibitor, matrix format” value with HCV replicon (two experiments) is given as “overall additivity”.

For orientation: IC50 means the concentration needed to halve the response being measured. What is called EC50 is the concentration needed to bring the measured effect to its halfway point.
